Values quoted from earlier work, collected in patent publication US9572848B1, “Composition of matter for sexual dysfunction” (Aemes Research L.L.L.P., priority 2014, dated 2017).

What was measured:
blood pressure = conditions: meta-analysis
[1] = system: growth hormone (GH) levels; conditions: oral arginine, 9-gram dose; placebo 2.9 (+/−0.7)

N=C(N)NCCC[C@H](N)C(=O)O [L-arginine]
Reduction of DBP, pooled estimate (blood pressure): 2.7 mmHg | Reduction of SBP, pooled estimate (blood pressure): 5.4 mmHg | Mean peak GH level [1]: 6.4 (+/−1.3) μg/L
